Results: patent publication EP4692062A1, “NOVEL AMIDE-BASED COMPOUND AND COMPOSITION COMPRISING SAME” (Amorepacific Corporation, priority 2023, dated 2024)

Key:
Assay type in all cases: biochemical
MMP-2 [1] = target: T1, MMP-2 (Homo sapiens, UniProt P08253); experiment: MMP2 Inhibitor Screening Assay Kit (ab139446), colorimetric thiopeptide substrate, OD412; details: T-23~34 at 0.5 uM; for inhibition at 0.5 µM: read-out: MMP-2 (%) (inhibitory efficacy, high concentration); for remaining activity at 0.5 µM: remaining enzyme activity, read-out: MMP-2 (%) (enzyme activity, high concentration)
T1 construct: purchased Abchem (so in the source)
T1 sequence (P08253 110-660): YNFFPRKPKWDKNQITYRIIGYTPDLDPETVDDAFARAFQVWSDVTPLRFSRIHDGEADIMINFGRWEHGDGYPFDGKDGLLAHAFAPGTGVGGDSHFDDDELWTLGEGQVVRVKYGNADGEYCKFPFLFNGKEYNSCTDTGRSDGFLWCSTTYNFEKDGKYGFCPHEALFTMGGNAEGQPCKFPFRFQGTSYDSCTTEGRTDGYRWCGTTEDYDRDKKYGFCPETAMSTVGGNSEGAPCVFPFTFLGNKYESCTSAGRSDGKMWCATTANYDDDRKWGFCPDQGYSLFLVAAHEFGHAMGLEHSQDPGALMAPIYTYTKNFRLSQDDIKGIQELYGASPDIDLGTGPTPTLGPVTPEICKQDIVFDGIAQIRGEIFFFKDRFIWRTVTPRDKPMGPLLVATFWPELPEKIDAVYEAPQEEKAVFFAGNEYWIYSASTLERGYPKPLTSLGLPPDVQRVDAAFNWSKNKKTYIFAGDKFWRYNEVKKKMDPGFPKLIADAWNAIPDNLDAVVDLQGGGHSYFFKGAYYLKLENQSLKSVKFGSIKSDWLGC

MMP-9 [2] = target: T2, MMP-9 (Homo sapiens, UniProt P14780); experiment: MMP9 Inhibitor Screening Assay Kit (ab139448), colorimetric thiopeptide substrate, OD412; details: T-23~34 at 0.5 uM; for inhibition at 0.5 µM: read-out: MMP-9 (%) (inhibitory efficacy, high concentration); for remaining activity at 0.5 µM: remaining enzyme activity, read-out: MMP-9 (%) (enzyme activity, high concentration)
T2 construct: purchased Abchem (so in the source)
T2 sequence (P14780 94-707): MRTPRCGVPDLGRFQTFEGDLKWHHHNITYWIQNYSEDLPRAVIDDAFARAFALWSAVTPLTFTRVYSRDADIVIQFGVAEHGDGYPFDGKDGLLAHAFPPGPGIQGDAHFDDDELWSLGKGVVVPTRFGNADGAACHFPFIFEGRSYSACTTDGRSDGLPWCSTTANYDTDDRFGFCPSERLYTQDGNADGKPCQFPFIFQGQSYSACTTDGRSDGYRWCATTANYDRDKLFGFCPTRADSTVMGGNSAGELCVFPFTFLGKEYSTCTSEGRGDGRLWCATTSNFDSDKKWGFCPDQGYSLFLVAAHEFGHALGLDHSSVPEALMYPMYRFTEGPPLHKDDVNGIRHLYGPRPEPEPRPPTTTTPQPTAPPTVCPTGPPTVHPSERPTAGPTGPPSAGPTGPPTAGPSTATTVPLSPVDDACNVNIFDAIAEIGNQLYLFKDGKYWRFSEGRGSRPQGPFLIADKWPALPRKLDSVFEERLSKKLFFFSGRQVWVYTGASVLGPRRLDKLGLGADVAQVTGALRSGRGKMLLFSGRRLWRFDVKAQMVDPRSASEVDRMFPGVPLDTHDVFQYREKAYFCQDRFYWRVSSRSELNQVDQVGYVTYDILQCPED

MMP-1 = target: T3, MMP-1 (Homo sapiens, UniProt P03956); experiment: MMP1 Inhibitor Screening Assay Kit (ab139443), colorimetric thiopeptide substrate, OD412; details: for inhibition at 5 µM / remaining activity at 5 µM: T-23~34 at 5 uM; for inhibition at 5 µM: read-out: MMP-1 (%) (inhibitory efficacy, high concentration); for remaining activity at 0.5 µM / remaining activity at 5 µM: remaining enzyme activity; for remaining activity at 0.5 µM: untreated group = 100%, n=2; for remaining activity at 5 µM: read-out: MMP-1 (%) (enzyme activity, high concentration)
T3 construct: purchased Abchem (so in the source)
T3 sequence (P03956 100-269 limits assumed): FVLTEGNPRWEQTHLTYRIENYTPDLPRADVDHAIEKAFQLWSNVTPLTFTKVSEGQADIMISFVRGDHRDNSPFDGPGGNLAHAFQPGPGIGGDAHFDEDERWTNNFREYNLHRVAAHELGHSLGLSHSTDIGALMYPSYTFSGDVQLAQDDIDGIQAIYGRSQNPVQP
Description: Enzyme activity (%) at the same concentration was compared with treatment with 0.5 µM MMP-1 activity and 50 nM MMP-2 and MMP-9 activity (n=2). Here, enzyme activity (%) refers to the enzyme activity (%) of the experimental group when the untreated group is considered to have 100% enzyme activity.
To evaluate the effect of the new compound on the enzyme activity, the color change was measured by following the provided protocol using a kit sold by Abchem as follows.
As MMP activity increases, the substrate is decomposed and the OD412 level increases. Therefore, the change in OD412 level (OD value) per minute was measured and the value was obtained according to the enzyme activity calculation formula below. […] (ε=13,600 M^-1cm^-1 above pH 6.0)
New compound enzyme activity(%) = (Vnew compound/Vuntreated group)*100 [formula] V = change in OD value per minute

MMP-2 [3] = target: T1, MMP-2; experiment: MMP2 Inhibitor Screening Assay Kit (ab139446), colorimetric thiopeptide substrate, OD412; details: compound at 50 nM; for remaining activity at 0.05 µM: remaining enzyme activity, untreated group = 100%, n=2
Description: Enzyme activity (%) at the same concentration was compared with treatment with 0.5 µM MMP-1 activity and 50 nM MMP-2 and MMP-9 activity (n=2). Here, enzyme activity (%) refers to the enzyme activity (%) of the experimental group when the untreated group is considered to have 100% enzyme activity. To evaluate the effect of the new compound on the enzyme activity, the color change was measured by following the provided protocol using a kit sold by Abchem as follows. […] Therefore, the change in OD412 level (OD value) per minute was measured and the value was obtained according to the enzyme activity calculation formula below. […] (ε=13,600 M^-1cm^-1 above pH 6.0) New compound enzyme activity(%) = (Vnew compound/Vuntreated group)*100 [formula] V = change in OD value per minute

MMP-9 [4] = target: T2, MMP-9; experiment: MMP9 Inhibitor Screening Assay Kit (ab139448), colorimetric thiopeptide substrate, OD412; details: compound at 50 nM; for remaining activity at 0.05 µM: remaining enzyme activity, untreated group = 100%, n=2
Description: Enzyme activity (%) at the same concentration was compared with treatment with 0.5 µM MMP-1 activity and 50 nM MMP-2 and MMP-9 activity (n=2). Here, enzyme activity (%) refers to the enzyme activity (%) of the experimental group when the untreated group is considered to have 100% enzyme activity. To evaluate the effect of the new compound on the enzyme activity, the color change was measured by following the provided protocol using a kit sold by Abchem as follows. Enzyme activity was obtained by comparing absorbance per minute with the untreated group. • MMP1 Inhibitor Screening Assay Kit (ab139443) • MMP2 Inhibitor Screening Assay Kit (ab139446) • MMP9 Inhibitor Screening Assay Kit (ab139448) As MMP activity increases, the substrate is decomposed and the OD412 level increases. Therefore, the change in OD412 level (OD value) per minute was measured and the value was obtained according to the enzyme activity calculation formula below. Here, OD412 means optical density or absorbance at 412 nm. • Thiopeptide (Ac-PLG-[2-mercapto-4-methyl-pentanoyl]-LG-OC2H5) as a chromogenic substrate. • The MMP cleavage site peptide bond was replaced by the thioester bond of the thiopeptide. • Hydrolysis of this bond by MMP generates a sulfhydryl group, which reacts with DTNB [5,5'-dithiobis(2-nitrobenzoic acid), Ellman's reagent] to form 2-nitro-5-thiobenzoic acid. , which can be measured by its absorbance at 412 nm. (ε=13,600 M^-1cm^-1 above pH 6.0) New compound enzyme activity(%) = (Vnew compound/Vuntreated group)*100 [formula] V = change in OD value per minute

Compound: O=C(NO)C1CCCCN1S(=O)(=O)c1ccc(C23CC4CC(CC(C4)C2)C3)cc1 (stereo not drawn) [T-23, 1-((4-((3r,5r,7r)-adamantan-1-yl)phenyl)sulfonyl)-N-hydroxypiperidine-2-carboxamide]
- inhibition at 0.5 µM (MMP-2 [1]): 0%
- remaining activity at 0.5 µM (MMP-2 [1]): 100%
- inhibition at 0.5 µM (MMP-9 [2]): 0%
- remaining activity at 0.5 µM (MMP-9 [2]): 100%
- inhibition at 5 µM (MMP-1; inhibition): 0%
- remaining activity at 0.5 µM (MMP-1; compound at 0.5 uM): 100%
- remaining activity at 5 µM (MMP-1): 100%
- remaining activity at 0.05 µM (MMP-2 [3]): 100%
- remaining activity at 0.05 µM (MMP-9 [4]): 100%

Compound: CC(=O)Nc1ccc(S(=O)(=O)N2CCCCC2C(=O)NO)cc1 (stereo not drawn) [T-25, 1-((4-acetamidophenyl)sulfonyl)-N-hydroxypiperidine-2-carboxamide]
- inhibition at 0.5 µM (MMP-2 [1]): 38.3%
- remaining activity at 0.5 µM (MMP-2 [1]): 61.7%
- inhibition at 0.5 µM (MMP-9 [2]): 20.6%
- remaining activity at 0.5 µM (MMP-9 [2]): 79.4%
- inhibition at 5 µM (MMP-1; inhibition): 14.2%
- inhibition at 0.5 µM (MMP-1; inhibition, compound at 0.5 uM, read-out: MMP-1 (%) at 0.5 uM (inhibitory activity)): 0%
- remaining activity at 0.5 µM (MMP-1; compound at 0.5 uM): 100%
- remaining activity at 5 µM (MMP-1): 85.8%
- inhibition at 0.05 µM (MMP-2 [3]; inhibition, read-out: MMP-2 (%) at 50 nM (inhibitory activity)): 0%
- remaining activity at 0.05 µM (MMP-2 [3]): 100%
- remaining activity at 0.05 µM (MMP-9 [4]): 100%

Compound: CC(C)(C)c1ccc(S(=O)(=O)N2CCCC2C(=O)NO)cc1 (stereo not drawn) [T-28, 1-((4-(tert-butyl)phenyl)sulfonyl)-N-hydroxypyrrolidine-2-carboxamide]
- inhibition at 0.5 µM (MMP-2 [1]): 0%
- remaining activity at 0.5 µM (MMP-2 [1]): 100%
- inhibition at 0.5 µM (MMP-9 [2]): 0%
- remaining activity at 0.5 µM (MMP-9 [2]): 100%
- inhibition at 5 µM (MMP-1; inhibition): 0%
- remaining activity at 0.5 µM (MMP-1; compound at 0.5 uM): 100%
- remaining activity at 5 µM (MMP-1): 100%
- remaining activity at 0.05 µM (MMP-2 [3]): 100%
- remaining activity at 0.05 µM (MMP-9 [4]): 100%

Compound: O=C(NO)C1CCCN1S(=O)(=O)c1ccc(C23CC4CC(CC(C4)C2)C3)cc1 (stereo not drawn) [T-32, 1-((4-((3r,5r,7r)-adamantan-1-yl)phenyl)sulfonyl)-N-hydroxypyrrolidine-2-carboxamide]
- inhibition at 0.5 µM (MMP-2 [1]): 7.6%
- remaining activity at 0.5 µM (MMP-2 [1]): 92.4%
- inhibition at 0.5 µM (MMP-9 [2]): 11.9%
- remaining activity at 0.5 µM (MMP-9 [2]): 88.1%
- inhibition at 5 µM (MMP-1; inhibition): 0%
- remaining activity at 0.5 µM (MMP-1; compound at 0.5 uM): 100%
- remaining activity at 5 µM (MMP-1): 100%
- remaining activity at 0.05 µM (MMP-2 [3]): 100%
- remaining activity at 0.05 µM (MMP-9 [4]): 100%

Compound: CCCc1ccc(S(=O)(=O)N2CCCC2C(=O)NO)cc1 (stereo not drawn) [T-33, N-hydroxy-1-((4-propylphenyl)sulfonyl)pyrrolidine-2-carboxamide]
- inhibition at 0.5 µM (MMP-2 [1]): 26.3%
- remaining activity at 0.5 µM (MMP-2 [1]): 73.7%
- inhibition at 0.5 µM (MMP-9 [2]): 22.2%
- remaining activity at 0.5 µM (MMP-9 [2]): 77.8%
- inhibition at 5 µM (MMP-1; inhibition): 26.1%
- remaining activity at 0.5 µM (MMP-1; compound at 0.5 uM): 100%
- remaining activity at 5 µM (MMP-1): 73.9%
- remaining activity at 0.05 µM (MMP-2 [3]): 90.5%
- inhibition at 0.05 µM (MMP-9 [4]; inhibition, read-out: MMP-9 (%) at 50 nM (inhibitory activity)): 0%
- remaining activity at 0.05 µM (MMP-9 [4]): 100%

Compound: CC(=O)c1ccc(S(=O)(=O)N2CCCC2C(=O)NO)cc1 (stereo not drawn) [T-34, 1-((4-acetylphenyl)sulfonyl)-N-hydroxypyrrolidine-2-carboxamide]
- inhibition at 0.5 µM (MMP-2 [1]): 37.8%
- remaining activity at 0.5 µM (MMP-2 [1]): 62.2%
- inhibition at 0.5 µM (MMP-9 [2]): 30.1%
- remaining activity at 0.5 µM (MMP-9 [2]): 69.9%
- inhibition at 5 µM (MMP-1; inhibition): 58.2%
- remaining activity at 0.5 µM (MMP-1; compound at 0.5 uM): 100%
- remaining activity at 5 µM (MMP-1): 41.8%
- remaining activity at 0.05 µM (MMP-2 [3]): 100%
- remaining activity at 0.05 µM (MMP-9 [4]): 100%
